Consider 7 compounds from PubChem BioAssay (NCI).

Structures are written as SMILES. Where “and” joins values, the source holds several entries; their conditions need not be identical. Equal values may be shown once.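 Method: 48-hour compound exposure of cells in 96-well plates, five concentrations, linear interpolation of endpoints. At the GI50, growth is halved. At the TGI there is no net growth.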

Among the test systems are SK-MEL-2 melanoma; SF-268 CNS; HOP-92 NSCLC; IGROV1 ovarian; UO-31 renal; CAKI-1 renal; 786-0 renal; HCT-15 colon; SK-MEL-5 melanoma; HL-60(TB) leukemia.
Holding throughout (experiment): NCI tumour cell line growth inhibition, 48 h

Regarding `CCCCCCNC(=O)c1nc(-c2ccccc2)oc1Cc1ccc(OP(=O)(O)O)cc1`, the GI50 in the assay on SK-MEL-2 melanoma was 19 µM; in the assay with SF-268 CNS, 17.3 µM; in the assay on HOP-92 NSCLC it was 14200 nM; with IGROV1 ovarian, 15.2 µM; in the assay with UO-31 renal, 12.6 µM; in the assay on CAKI-1 renal, 15.8 µM. Further, the GI50 in the assay with 786-0 renal is 17.9 µM; with HCT-15 colon it was 17.8 µM; in the assay with SK-MEL-5 melanoma, 16.8 µM; in the assay on HL-60(TB) leukemia, 25.2 µM. In addition, the TGI was 37.1 µM in the assay on SK-MEL-2 melanoma; 35.4 µM with SF-268 CNS; 27.9 µM with HOP-92 NSCLC; 31.2 µM with IGROV1 ovarian; 26.8 µM in the assay with UO-31 renal; 33.6 µM in the assay with CAKI-1 renal. The TGI was determined as 35.4 µM in the assay with 786-0 renal, 37.2 µM with HCT-15 colon, 30.7 µM with SK-MEL-5 melanoma and 62.4 µM in the assay with HL-60(TB) leukemia.
In the case of `C[C@H]1Oc2cc(cnc2N)-c2c(nn(C)c2C#N)CN(C)C(=O)c2ccc(F)cc21`, the GI50 in the assay on SK-MEL-2 melanoma is 78 µM; in the assay with SF-268 CNS, 27.1 µM; with HOP-92 NSCLC, 2540 nM; in the assay on IGROV1 ovarian, 28.1 µM; in the assay with UO-31 renal, 13.9 µM; in the assay on CAKI-1 renal, 18.3 µM. The GI50 was 36.2 µM with 786-0 renal, 47 µM in the assay on HCT-15 colon, over 74.8 µM in the assay on SK-MEL-5 melanoma and over 100 µM with HL-60(TB) leukemia. For the same compound, the TGI in the assay on SK-MEL-2 melanoma was over 100 µM; with SF-268 CNS, over 100 µM; in the assay with HOP-92 NSCLC it was over 54.2 µM; in the assay with IGROV1 ovarian, over 100 µM; in the assay with UO-31 renal it was 60.2 µM; in the assay with CAKI-1 renal, over 100 µM. The TGI with 786-0 renal, in the assay on HCT-15 colon, in the assay with SK-MEL-5 melanoma and in the assay on HL-60(TB) leukemia was over 100 µM each time.
Take `CS(=O)(=O)CCCn1c(=O)c(Oc2ccc(F)cc2F)cc2cnc(NC3CCOCC3)nc21`: the GI50 in the assay on SK-MEL-2 melanoma is over 25 µM; in the assay with SF-268 CNS, over 25 µM; in the assay with HOP-92 NSCLC, over 25000 nM; in the assay on IGROV1 ovarian, over 25 µM; with UO-31 renal, over 25 µM; with CAKI-1 renal, over 25 µM. Besides, the GI50 with 786-0 renal, in the assay on HCT-15 colon, in the assay on SK-MEL-5 melanoma and in the assay with HL-60(TB) leukemia was over 25 µM in each case. Also, the TGI with SK-MEL-2 melanoma, in the assay with SF-268 CNS, with HOP-92 NSCLC, in the assay on IGROV1 ovarian, in the assay on UO-31 renal and with CAKI-1 renal was over 25 µM in each case. Moreover, the TGI with 786-0 renal, in the assay on HCT-15 colon, in the assay with SK-MEL-5 melanoma and with HL-60(TB) leukemia was over 25 µM in each case.
Regarding `COc1ccncc1C#Cc1cncc(C(=O)Nc2ccc(CN3CCN(C)CC3)c(C(F)(F)F)c2)c1`, the GI50 in the assay on SK-MEL-2 melanoma is 13.3 µM; in the assay with SF-268 CNS, 17.5 µM; in the assay on HOP-92 NSCLC it was 4830 nM; in the assay with IGROV1 ovarian, 8.57 µM; in the assay on UO-31 renal it was 15.4 µM; in the assay with CAKI-1 renal, 22.6 µM. Also, the GI50 in the assay with 786-0 renal is 35.8 µM; in the assay on HCT-15 colon it was 19.8 µM; with SK-MEL-5 melanoma, 39 µM; with HL-60(TB) leukemia, 7.4 µM. Also, the TGI in the assay on SK-MEL-2 melanoma is 48.3 µM; in the assay with SF-268 CNS, 66.2 µM; in the assay with HOP-92 NSCLC, 57.2 µM; with IGROV1 ovarian, 84.2 µM; in the assay with UO-31 renal, over 100 µM; in the assay with CAKI-1 renal it was over 100 µM. In addition, the TGI was over 100 µM in the assay with 786-0 renal, over 100 µM in the assay with HCT-15 colon, over 100 µM in the assay on SK-MEL-5 melanoma and 46.7 µM in the assay with HL-60(TB) leukemia.
Consider `COC12C=C/C(=C(/C(=O)OCc3ccncc3)C(=O)CCCCCCCCC3(OC)C=C/C(=C(/C(=O)OCc4ccncc4)C(=O)CCCCCCCC1)O3)O2`, for which the GI50 is 1.08 µM in the assay with SK-MEL-2 melanoma; 1.04 µM in the assay on SF-268 CNS; 1230 nM in the assay with HOP-92 NSCLC; 0.316 µM in the assay on IGROV1 ovarian; 0.641 µM with UO-31 renal; 1.12 µM in the assay on CAKI-1 renal. The GI50 in the assay on 786-0 renal was 0.354 µM; with HCT-15 colon, 0.548 µM; with SK-MEL-5 melanoma, 0.247 µM; with HL-60(TB) leukemia, 0.371 µM. Moreover, the TGI in the assay on SK-MEL-2 melanoma was 3.05 µM; in the assay on SF-268 CNS, 3.28 µM; in the assay with HOP-92 NSCLC it was 2.36 µM; with IGROV1 ovarian, 2.14 µM; with UO-31 renal, 1.4 µM; in the assay on CAKI-1 renal, 2.85 µM. The TGI in the assay with 786-0 renal came out at 1.19 µM; in the assay with HCT-15 colon, 1.74 µM; in the assay on SK-MEL-5 melanoma, 0.867 µM; with HL-60(TB) leukemia, 1.96 µM.
Consider `O=c1cc2oc3cc(O)c(O)cc3c(-c3ccccc3O)c-2cc1O`, for which the GI50 with SK-MEL-2 melanoma is 36.8 µM; with SF-268 CNS, 5.53 µM; in the assay on HOP-92 NSCLC, 30300 nM; in the assay with IGROV1 ovarian, 6.73 µM; in the assay on UO-31 renal, 3.3 µM; with CAKI-1 renal it was 3.04 µM. The GI50 is 6.32 µM with 786-0 renal, 38.3 µM with HCT-15 colon, 19.4 µM in the assay with SK-MEL-5 melanoma and 33.5 µM in the assay with HL-60(TB) leukemia. Further, the TGI in the assay on SK-MEL-2 melanoma is over 100 µM; in the assay with SF-268 CNS it was over 100 µM; in the assay with HOP-92 NSCLC, over 100 µM; in the assay with IGROV1 ovarian, over 100 µM; in the assay with UO-31 renal, over 100 µM; in the assay on CAKI-1 renal, 11.1 µM. Also, the TGI is 37.2 µM with 786-0 renal, over 100 µM in the assay with HCT-15 colon, over 100 µM with SK-MEL-5 melanoma and 99.6 µM in the assay on HL-60(TB) leukemia.
On to `O=C(c1ccc(F)c(F)c1Nc1ccc(I)cc1F)N1CC(O)([C@@H]2CCCCN2)C1`, for which the GI50 in the assay on SK-MEL-2 melanoma is < 0.013 µM and 0.0327 µM; with SF-268 CNS, 5.02 µM and 4.94 µM; with HOP-92 NSCLC, 20.7 nM and 57.7 nM; in the assay on IGROV1 ovarian it was < 0.0461 µM and 0.125 µM; in the assay on UO-31 renal, 0.0596 µM and 0.538 µM; in the assay with CAKI-1 renal it was 2.36 µM. Moreover, the GI50 is 5.74 µM and 3.82 µM with 786-0 renal; 1.22 µM and 1.92 µM in the assay on HCT-15 colon; < 0.0172 µM and 0.00962 µM in the assay with HL-60(TB) leukemia. The TGI is under 0.0268 µM in the assay on SK-MEL-2 melanoma; 20.6 µM and > 10 µM with SF-268 CNS; 0.239 µM and 0.65 µM in the assay on HOP-92 NSCLC; 13.8 µM and > 10 µM in the assay on IGROV1 ovarian; 13.8 µM and > 10 µM with UO-31 renal; 17.9 µM and > 10 µM with CAKI-1 renal. The TGI with 786-0 renal was 20.6 µM and > 10 µM; in the assay with HCT-15 colon it was 16.8 µM and > 10 µM; with SK-MEL-5 melanoma it was 8.56 µM and > 10 µM; with HL-60(TB) leukemia, 2.33 µM and > 10 µM.
